From patent publication US5543396A, “Proline phosphonate derivatives” (priority 1994, dated 1996)

Tests used:
Human Placenta DPP-IV = target: T1, Human Placenta DPP-IV (Homo sapiens, UniProt P27487); assay: Inhibition of DPP-IV by peptidyl phosphonates, incubation method; assay type: biochemical; conditions: for % Inhibition 2 min / % Inhibition 30 min: [I] 0.12 mM, 0.05 M Tris pH 7.8, 5% Me2SO, substrate TFA.Ala-Pro-AFC 0.190 mM; for % Inhibition 2 min / % Inhibition 30 min / kobs /[I] for DPP-IV: 23° C.; for kobs /[I] for DPP-IV: 0.05 M Tris pH 7.8, 8% Me2SO, substrate TFA.Ala-Pro-AFC 0.2 mM; for inhibition of DPP-IV, in words: inhibitor 0.12 mM
T1 construct: from tissue; host or cells: human placenta
Protocol: Standard Assay of DPP-IV. DPP-IV was assayed in 450 μL of 50 mM Tris, pH 7.8, 0.2 mM Ala-Pro-AFC (freshly diluted from a 20 mM stock in DMF), and 5 μL of enzyme solution at 30° C. or in 2 mL of buffer, 0.2 mM Ala-Pro-AFC (diluted from 8 mM stock in Me2 SO) at 23° C. Fluorescence was measured at 400 nm excitation and 505 nm emission. One unit of DPP-IV is defined as the amount of enzyme that will hydrolyze 1.0 μmole of Ala-Pro-AFC per min at 25° C. and pH 7.8.
Enzyme Irreversible Inactivation--Incubation Method. An aliquot of inhibitor (25 or 50 μL) in Me2 SO was added to 0.28-0.55 mL of a buffered enzyme solution (0.83 munits for DPP-IV; 2.1 units for acetylcholinesterase; 0.07-4.5 μM for other enzymes) to initiate the inactivation reaction. Aliquots (20-250 μL) were withdrawn at various intervals and the residual enzymatic activity was measured at 23° C. as described below. The buffers were: 0.05M Tris, pH 7.8 for DPP-IV; 0.1M Hepes, 0.01M CaCl2, pH 7.5 for bovine trypsin; 0.1M Hepes, 0.5M NaCl, pH 7.5 for bovine chymotrypsin, PPE, and HLE; 0.1M phosphate, pH 7.5 for acetylcholinesterase; 50 mM Tris-HCl, 2 mM EDTA, 5 mM cysteine, (freshly prepared) pH 7.5 buffer for papain and 100 mM KH2 PO4, 1.33 mM EDTA, 2.7 mM cysteine (freshly prepared), pH 6.0 buffer for cathepsin B. […] The inhibitor concentrations are shown in the appropriate table. Stock solutions of substrates were prepared in Me2 SO and stored at -20° C. DPP-IV was assayed with TFA.Ala-Pro-AFC. Papain and cathepsin B were assayed with Bz-Arg-AMC and Z-Arg-Arg-AMC, respectively. The release of AMC were followed fluorometrically (excitation at 380 nm and emmision at 460 nm for AMC). Acetylcholinesterase was assayed with acetylthiocholine iodide in the presence of DTNB at 412 nm. Trypsin was assayed with Z-Phe-Gly-Arg-.rho.NA.HCl (0.09 mM), chymotrypsin was assayed with Suc-Phe-Thr-Phe-.rho.NA (0.48 mM), PPE and HLE were assayed with Suc-Ala-Ala-Ala-.rho.NA (0.44 mM) and MeO-Suc-Ala-Ala-Pro-Val-.rho.NA (0.24 mM), respectively. Peptide .rho.-nitroanilide hydrolysis was measured at 410 nm (ε410 =8,800 M ^1 cm^-1). Pseudo first-order inactivation rate constants (kobs) were obtained from plots of In vt /vo vs time, and the correlation coefficients were greater than 0.98.

[1] = Half-lives for spontaneous hydrolysis of inhibitors in buffer; assay type: physicochemical; conditions: 0.05 M Tris, pH 7.8 buffer, 8% Me2SO, 23° C.
Description: Determination of Half-Lives for Spontaneous Hydrolysis of Inhibitors in Buffer. […] The spontaneous hydrolysis was monitored by following the increase in absorbance at 270 nm for phosphonates with phenoxy groups, at 280 nm for compounds with 4-.chlorophenoxy groups or at 277 nm for the 4-fluorophenoxy derivative. Half-lives were obtained from first-order plots of ln (Af -At) vs time, where At is the absorbance of the mixture at time t, and Af is the final absorbance of phosphonate monophenyl ester and phenol (or corresponding compounds). This was obtained from the absorbance of the solution which had remained constant for a few hours. All the plots gave correlation coefficients of 0.95 or greater.

DPP-IV = DPP-IV (Homo sapiens, UniProt P27487); assay: Stability of inhibited DPP-IV; conditions: for recovery of enzyme activity of inhibited DPP-IV: after 24 h, excess inhibitor removed by centrifugation; for DPP-IV enzyme activity found after incubation with inhibitor: inhibitor 0.042-0.42 mM, pH 7.8 buffer, incubation for 1 h
Protocol: Excess inhibitors in the inhibited enzyme solution were removed by centrifugation of the diluted enzyme solution twice using Amicon microconcentrators.
Stability of Inhibited DPP-IV. […] Excess inhibitors was removed from diluted solutions of inactivated enzyme by centrifugation three times at 0° C. for 1 h each in Amicon Centricon-10 microconcentrators following addition of buffer. The enzyme activity of solution was assayed at various intervals as described above.

Chymotrypsin = Chymotrypsin (Bos taurus, UniProt P00766); assay: Inhibition of chymotrypsin, incubation method; assay type: biochemical, bovine; conditions: for kobs /[I] Chymotrypsin: [I] 0.42 mM, 0.1 M Hepes, 0.5 M NaCl, pH 7.5, 8-9% Me2SO, 23° C., Suc-Phe-Thr-Phe-pNA 0.48 mM
Protocol: Inactivation rates of serine proteases by aryl diesters of peptidyl derivatives of α-aminoalkylphosphonates were measured by the incubation method. An aliquot of inhibitor (25 or 50 μl) in Me2 SO was added to a buffered enzyme solution (0.01-2.3 μM) to initiate the inactivation. Aliquots (50 μl) were withdrawn at various intervals and the residual enzymatic activity was measured. Me2 SO concentration in the reaction mixture was 8-12% (v/v). A 0.1M HEPES, 0.01M CaCl2, pH 7.5 buffer was utilized for trypsin and trypsin-like enzymes. A 0.1M HEPES, 0.5M NaCl, pH 7.5, was utilized for the other serine proteases. Peptide thioesters or peptide nitroanilides with the appropriate sequences were used as substrates for various serine proteases. All peptide thioesters hydrolysis rates were measured with the assay mixture containing 4,4'-dithiodipyridine (ε324 =19800M^-1 cm^-1). Peptide 4-nitroanilide hydrolysis was measured at 410 nm (ε410 =8800 M ^-1 cm^-1). First order inactivation rate constants (kobs) were obtained from plots of ln vt /vo vs time, and the correlation coefficients were greater then 0.98.
Enzyme Irreversible Inactivation--Incubation Method. An aliquot of inhibitor (25 or 50 μL) in Me2 SO was added to 0.28-0.55 mL of a buffered enzyme solution (0.83 munits for DPP-IV; 2.1 units for acetylcholinesterase; 0.07-4.5 μM for other enzymes) to initiate the inactivation reaction. Aliquots (20-250 μL) were withdrawn at various intervals and the residual enzymatic activity was measured at 23° C. as described below. The buffers were: 0.05M Tris, pH 7.8 for DPP-IV; 0.1M Hepes, 0.01M CaCl2, pH 7.5 for bovine trypsin; 0.1M Hepes, 0.5M NaCl, pH 7.5 for bovine chymotrypsin, PPE, and HLE; 0.1M phosphate, pH 7.5 for acetylcholinesterase; 50 mM Tris-HCl, 2 mM EDTA, 5 mM cysteine, (freshly prepared) pH 7.5 buffer for papain and 100 mM KH2 PO4, 1.33 mM EDTA, 2.7 mM cysteine (freshly prepared), pH 6.0 buffer for cathepsin B. The Me2 SO concentration in the reaction mixtures was 8-9% (v/v). The inhibitor concentrations are shown in the appropriate table. Stock solutions of substrates were prepared in Me2 SO and stored at -20° C. DPP-IV was assayed with TFA.Ala-Pro-AFC. Papain and cathepsin B were assayed with Bz-Arg-AMC and Z-Arg-Arg-AMC, respectively. The release of AMC were followed fluorometrically (excitation at 380 nm and emmision at 460 nm for AMC). Acetylcholinesterase was assayed with acetylthiocholine iodide in the presence of DTNB at 412 nm. Trypsin was assayed with Z-Phe-Gly-Arg-.rho.NA.HCl (0.09 mM), chymotrypsin was assayed with Suc-Phe-Thr-Phe-.rho.NA (0.48 mM), PPE and HLE were assayed with Suc-Ala-Ala-Ala-.rho.NA (0.44 mM) and MeO-Suc-Ala-Ala-Pro-Val-.rho.NA (0.24 mM), respectively. Peptide .rho.-nitroanilide hydrolysis was measured at 410 nm (ε410 =8,800 M ^1 cm^-1). […]

[2] = Hydrolysis in human plasma; assay type: in vitro ADME
Description: Furthermore, they show excellent stability in human plasma. For example Suc-Val-Pro-Phe^P (OPh)2 has a hydrolysis half-time in human plasma of about 20 hrs. […] Thus they can be used under a variety of conditions. Phosphonates have the additional advantage of being very stable in plasma and will have a high effectiveness in […] vivo due to their long lifetimes.

Chain of DPP-IV (P27487 whole entry): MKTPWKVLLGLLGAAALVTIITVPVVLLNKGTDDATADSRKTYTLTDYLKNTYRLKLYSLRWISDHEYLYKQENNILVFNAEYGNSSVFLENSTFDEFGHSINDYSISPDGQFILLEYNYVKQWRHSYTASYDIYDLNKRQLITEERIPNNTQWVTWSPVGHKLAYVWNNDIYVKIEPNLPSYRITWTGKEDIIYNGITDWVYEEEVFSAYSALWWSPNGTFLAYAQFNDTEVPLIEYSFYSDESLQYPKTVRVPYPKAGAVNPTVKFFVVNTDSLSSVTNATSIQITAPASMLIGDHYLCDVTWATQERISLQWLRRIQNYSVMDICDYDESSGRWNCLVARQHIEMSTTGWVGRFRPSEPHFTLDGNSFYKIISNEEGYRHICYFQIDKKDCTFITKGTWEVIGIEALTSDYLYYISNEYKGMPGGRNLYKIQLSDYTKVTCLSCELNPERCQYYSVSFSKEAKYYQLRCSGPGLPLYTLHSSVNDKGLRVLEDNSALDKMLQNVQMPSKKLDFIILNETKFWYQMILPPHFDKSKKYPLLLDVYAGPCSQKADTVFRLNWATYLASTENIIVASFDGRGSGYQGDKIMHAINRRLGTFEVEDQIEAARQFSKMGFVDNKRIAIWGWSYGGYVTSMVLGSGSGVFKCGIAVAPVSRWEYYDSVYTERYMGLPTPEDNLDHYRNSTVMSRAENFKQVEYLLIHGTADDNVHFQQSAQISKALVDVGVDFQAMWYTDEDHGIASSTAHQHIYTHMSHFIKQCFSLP
T1 sequence (P27487 whole entry): as above

| Compound | % Inhibition 2 min (Human Placenta DPP-IV; 2 min incubation) | % Inhibition 30 min (Human Placenta DPP-IV; 30 min incubation) | kobs /[I] for DPP-IV (Human Placenta DPP-IV; [I] 0.42 mM) | inhibition of DPP-IV, in words (Human Placenta DPP-IV; 30 min incubation) | t1/2, half-life for hydrolysis [1] | recovery of enzyme activity of inhibited DPP-IV (DPP-IV) | DPP-IV enzyme activity found after incubation with inhibitor (DPP-IV) | inhibition of DPP-IV, in words (Human Placenta DPP-IV; 2 min incubation) | inhibition of chymotrypsin, in words (Chymotrypsin) | kobs /[I] Chymotrypsin (Chymotrypsin) | kobs /[I] for DPP-IV (Human Placenta DPP-IV; [I] 0.042 mM) | hydrolysis half-time in human plasma [2] |
| --- | --- | --- | --- | --- | --- | --- | --- | --- | --- | --- | --- | --- |
| C[C@H](N)C(=O)N1CCCC1P(=O)(Oc1ccccc1)Oc1ccccc1.Cl (some centres unmarked) [Compound 6, Diphenyl Alanylpyrrolidine-2-phosphonate Hydrochloride] | 0% | 33% | 1.2 M⁻¹ s⁻¹ | showed some inhibitory potency | 23.1 h | did not regain enzyme activity | 30% |  |  |  |  |  |
| CC(=O)O.C[C@H](N)C(=O)N1CCCCC1P(=O)(Oc1ccccc1)Oc1ccccc1 (some centres unmarked) [Compound 7, Diphenyl Alanylpiperidine-2-phosphonate Acetate] | 0% | 100% | 12.6 M⁻¹ s⁻¹ | showed some inhibitory potency | > 72 h | did not regain enzyme activity | no enzyme activity |  |  |  |  |  |
| CC(=O)O.C[C@H](N)C(=O)N1CCCCC1P(=O)(O)Oc1ccccc1 (some centres unmarked) [Compound 8, Monophenyl Alanylpiperidine-2-phosphonate Acetate] | 0% | 0% |  | did not show any inhibition |  |  |  |  |  |  |  |  |
| Br.N[C@@H](Cc1ccccc1)C(=O)N1CCCC1P(=O)(Oc1ccccc1)Oc1ccccc1 (some centres unmarked) [Compound 9, Diphenyl Phenylalanylpyrrolidine-2-phosphonate Hydrobromide] | 0% | 0% |  | did not show any inhibition |  |  |  |  |  |  |  |  |
| Br.Br.NCCCC[C@H](N)C(=O)N1CCCC1P(=O)(Oc1ccccc1)Oc1ccccc1 (some centres unmarked) [Compound 10, Diphenyl Lysylpyrrolidine-2-phosphonate Dihydrobromide] | 0% | 0% | 1.7 M⁻¹ s⁻¹ | did not show any inhibition | 52 h |  |  |  |  |  |  |  |
| Cl.Cl.NCCCC[C@H](N)C(=O)N1CCCCC1P(=O)(Oc1ccccc1)Oc1ccccc1 (some centres unmarked) [Compound 11, Diphenyl Lysylpiperidine-2-phosphonate Dihydrochloride] | 35% | 88% | 4.2 M⁻¹ s⁻¹ | showed some inhibitory potency | > 48 h |  |  | effectively inhibited |  |  |  |  |
| C[C@H](N)C(=O)N1CCCC1P(=O)(Oc1ccc(Cl)cc1)Oc1ccc(Cl)cc1.Cl (some centres unmarked) [Compound 12, Di(4-chlorophenyl) Alanylpyrrolidine-2-phosphonate Hydrochloride] | 0% | 100% | 28 M⁻¹ s⁻¹ | showed some inhibitory potency | 5.3 h | did not regain enzyme activity |  |  | very slowly | 26 M⁻¹ s⁻¹ |  |  |
| C[C@H](N)C(=O)N1CCCCC1P(=O)(Oc1ccc(Cl)cc1)Oc1ccc(Cl)cc1.Cl (some centres unmarked) [Compound 13, Di(4-chlorophenyl) Alanylpiperidine-2-phosphonate Hydrochloride] | 88% | 100% |  | showed some inhibitory potency | 67 h | did not regain enzyme activity | no enzyme activity | effectively inhibited | very slowly | 18 M⁻¹ s⁻¹ | 156 M⁻¹ s⁻¹ |  |
| C[C@H](N)C(=O)N1CCCCC1P(=O)(Oc1ccc(F)cc1)Oc1ccc(F)cc1.Cl (some centres unmarked) [Compound 14, Di(4-fluorophenyl) Alanyl-piperidine-2-phosphonate Hydrochloride] |  |  | 12 M⁻¹ s⁻¹ |  | > 68 h |  | no enzyme activity |  |  |  |  |  |
| Suc-Val-Pro-Phe^P (OPh)2 |  |  |  |  |  |  |  |  |  |  |  | about 20 hrs |
